Experimental findings from BindingDB's records for doi:10.1021/acs.jmedchem.9b00500 (2019) are described below.

The term Kd denotes the constant that tells how readily two partners part at equilibrium.

Bridge positions count the residues as written; N and C are the ends. Square brackets hold non-standard residues; d marks the D form. Peptide text beside a SMILES is read from it. I, II: the chains in the order shown. Phe(3,4-Cl2) = N[C@@H](Cc1ccc(Cl)c(Cl)c1)C(=O)O; tBuAla = CC(C)(C)C[C@H](N)C(=O)O; hLeu = CC(C)CC[C@H](N)C(=O)O; Nle = CCCC[C@H](N)C(=O)O

In this assay the target is Frizzled-7 (Homo sapiens, UniProt O75084). Nature of the assay: Binding affinity to recombinant human Frizzled-7 (Gln33 to Leu185 residues)/human IgG1 chimeric protein expressed in CHO cells assessed as […] by SPR assay. A general note: Surface plasmon resonance follows binding to a sensor surface in real time, without labels.
As to `CSCC[C@H](NC(=O)[C@@H](NC(=O)[C@H](Cc1cnc[nH]1)NC(=O)[C@H](CSSC[C@H](NC(=O)[C@H](Cc1c[nH]c2ccccc12)NC(=O)[C@H](Cc1ccccc1)NC(=O)[C@H](CCC(=O)O)NC(=O)[C@H](CCC(C)C)NC(=O)[C@H](CC(=O)O)NC(=O)[C@H](CC(=O)O)NC(=O)[C@H](CO)NC(C)=O)C(=O)N[C@@H](Cc1cnc[nH]1)C(=O)N[C@H](C(=O)N[C@@H](CCSC)C(=O)N[C@@H](Cc1ccc(O)cc1)C(N)=O)C(C)C)NC(=O)[C@H](Cc1c[nH]c2ccccc12)NC(=O)[C@H](Cc1ccccc1)NC(=O)[C@H](CCC(=O)O)NC(=O)[C@H](CCC(C)C)NC(=O)[C@H](CC(=O)O)NC(=O)[C@H](CC(=O)O)NC(=O)[C@H](CO)NC(C)=O)C(C)C)C(=O)N[C@@H](Cc1ccc(O)cc1)C(N)=O` (I: Ac-SDD[hLeu]EFWCHVMY-NH2 / II: Ac-SDD[hLeu]EFWCHVMY-NH2; disulfide I:8-II:8), the Kd is 124 nM.

In the case of `CSCC[C@H](NC(=O)[C@@H](NC(=O)[C@H](Cc1cnc[nH]1)NC(=O)[C@H](CSSC[C@H](NC(=O)[C@H](Cc1c[nH]c2ccccc12)NC(=O)[C@H](Cc1ccccc1)NC(=O)[C@H](CCC(=O)O)NC(=O)[C@H](CC(C)C)NC(=O)[C@H](CC(=O)O)NC(=O)[C@H](CC(=O)O)NC(=O)[C@H](CO)NC(C)=O)C(=O)N[C@@H](Cc1cnc[nH]1)C(=O)N[C@H](C(=O)N[C@@H](CCSC)C(=O)N[C@@H](Cc1ccc(Cl)c(Cl)c1)C(N)=O)C(C)C)NC(=O)[C@H](Cc1c[nH]c2ccccc12)NC(=O)[C@H](Cc1ccccc1)NC(=O)[C@H](CCC(=O)O)NC(=O)[C@H](CC(C)C)NC(=O)[C@H](CC(=O)O)NC(=O)[C@H](CC(=O)O)NC(=O)[C@H](CO)NC(C)=O)C(C)C)C(=O)N[C@@H](Cc1ccc(Cl)c(Cl)c1)C(N)=O` (I: Ac-SDDLEFWCHVM[Phe(3,4-Cl2)]-NH2 / II: Ac-SDDLEFWCHVM[Phe(3,4-Cl2)]-NH2; disulfide I:8-II:8), the Kd came to 0.9 nM.

As to `CC[C@H](C)[C@H](NC(=O)[C@H](Cc1cnc[nH]1)NC(=O)[C@H](CSSCC[C@H](NC(=O)[C@H](Cc1c[nH]c2ccccc12)NC(=O)[C@H](CC(C)C)NC(=O)[C@H](CCC(=O)O)NC(=O)[C@H](CC(C)C)NC(=O)[C@H](CC(=O)O)NC(=O)[C@H](CC(=O)O)NC(=O)[C@@H](NC(C)=O)[C@@H](C)O)C(=O)N[C@@H](Cc1cnc[nH]1)C(=O)N[C@H](C(=O)N[C@@H](CCSC)C(=O)N[C@@H](Cc1ccc(O)cc1)C(N)=O)[C@@H](C)CC)NC(=O)[C@H](Cc1c[nH]c2ccccc12)NC(=O)[C@H](CC(C)C)NC(=O)[C@H](CCC(=O)O)NC(=O)[C@H](CC(C)C)NC(=O)[C@H](CC(=O)O)NC(=O)[C@H](CC(=O)O)NC(=O)[C@@H](NC(C)=O)[C@H](C)O)C(=O)N[C@@H](CCSC)C(=O)N[C@@H](Cc1ccc(O)cc1)C(N)=O`, the Kd is 6.3 nM.

For the compound `CC[C@H](C)[C@H](NC(=O)[C@H](Cc1cnc[nH]1)NC(=O)[C@H](CSSC[C@H](NC(=O)[C@H](Cc1c[nH]c2ccccc12)NC(=O)[C@H](Cc1ccccc1)NC(=O)[C@H](CCC(=O)O)NC(=O)[C@H](CC(C)C)NC(=O)[C@H](CC(=O)O)NC(=O)[C@H](CC(=O)O)NC(=O)[C@H](CO)NC(C)=O)C(=O)N[C@@H](Cc1cnc[nH]1)C(=O)N[C@H](C(=O)N[C@@H](CCSC)C(=O)N[C@@H](Cc1ccc(O)cc1)C(N)=O)[C@@H](C)CC)NC(=O)[C@H](Cc1c[nH]c2ccccc12)NC(=O)[C@H](Cc1ccccc1)NC(=O)[C@H](CCC(=O)O)NC(=O)[C@H](CC(C)C)NC(=O)[C@H](CC(=O)O)NC(=O)[C@H](CC(=O)O)NC(=O)[C@H](CO)NC(C)=O)C(=O)N[C@@H](CCSC)C(=O)N[C@@H](Cc1ccc(O)cc1)C(N)=O` (I: Ac-SDDLEFWCHIMY-NH2 / II: Ac-SDDLEFWCHIMY-NH2; disulfide I:8-II:8), the Kd amounted to 0.96 nM.

With `CSCC[C@H](NC(=O)[C@@H](CC1CCC1)NC(=O)[C@H](Cc1cnc[nH]1)NC(=O)[C@H](CSSC[C@H](NC(=O)[C@H](Cc1c[nH]c2ccccc12)NC(=O)[C@H](Cc1ccccc1)NC(=O)[C@H](CCC(=O)O)NC(=O)[C@H](CC(C)C)NC(=O)[C@H](CC(=O)O)NC(=O)[C@H](CC(=O)O)NC(=O)[C@H](CO)NC(C)=O)C(=O)N[C@@H](Cc1cnc[nH]1)C(=O)N[C@H](CC1CCC1)C(=O)N[C@@H](CCSC)C(=O)N[C@@H](Cc1ccc(O)cc1)C(N)=O)NC(=O)[C@H](Cc1c[nH]c2ccccc12)NC(=O)[C@H](Cc1ccccc1)NC(=O)[C@H](CCC(=O)O)NC(=O)[C@H](CC(C)C)NC(=O)[C@H](CC(=O)O)NC(=O)[C@H](CC(=O)O)NC(=O)[C@H](CO)NC(C)=O)C(=O)N[C@@H](Cc1ccc(O)cc1)C(N)=O`, the Kd is 2.1 nM.

Take `CSCC[C@H](NC(=O)[C@@H](NC(=O)[C@H](Cc1cnc[nH]1)NC(=O)[C@H](CSSC[C@H](NC(=O)[C@H](Cc1c[nH]c2ccccc12)NC(=O)[C@H](Cc1ccccc1)NC(=O)[C@H](CCC(=O)O)NC(=O)[C@H](CC(C)(C)C)NC(=O)[C@H](CC(=O)O)NC(=O)[C@H](CC(=O)O)NC(=O)[C@H](CO)NC(C)=O)C(=O)N[C@@H](Cc1cnc[nH]1)C(=O)N[C@H](C(=O)N[C@@H](CCSC)C(=O)N[C@@H](Cc1ccc(O)cc1)C(N)=O)C(C)C)NC(=O)[C@H](Cc1c[nH]c2ccccc12)NC(=O)[C@H](Cc1ccccc1)NC(=O)[C@H](CCC(=O)O)NC(=O)[C@H](CC(C)(C)C)NC(=O)[C@H](CC(=O)O)NC(=O)[C@H](CC(=O)O)NC(=O)[C@H](CO)NC(C)=O)C(C)C)C(=O)N[C@@H](Cc1ccc(O)cc1)C(N)=O` (I: Ac-SDD[tBuAla]EFWCHVMY-NH2 / II: Ac-SDD[tBuAla]EFWCHVMY-NH2; disulfide I:8-II:8): the Kd was determined as 0.95 nM.

For `CCCC[C@H](NC(=O)[C@H](CC(=O)O)NC(=O)[C@H](CC(=O)O)NC(=O)[C@H](CO)NC(C)=O)C(=O)N[C@@H](CCC(=O)O)C(=O)N[C@@H](Cc1ccccc1)C(=O)N[C@@H](Cc1c[nH]c2ccccc12)C(=O)N[C@@H](CSSC[C@H](NC(=O)[C@H](Cc1c[nH]c2ccccc12)NC(=O)[C@H](Cc1ccccc1)NC(=O)[C@H](CCC(=O)O)NC(=O)[C@H](CCCC)NC(=O)[C@H](CC(=O)O)NC(=O)[C@H](CC(=O)O)NC(=O)[C@H](CO)NC(C)=O)C(=O)N[C@@H](Cc1cnc[nH]1)C(=O)N[C@H](C(=O)N[C@@H](CCSC)C(=O)N[C@@H](Cc1ccc(O)cc1)C(N)=O)C(C)C)C(=O)N[C@@H](Cc1cnc[nH]1)C(=O)N[C@H](C(=O)N[C@@H](CCSC)C(=O)N[C@@H](Cc1ccc(O)cc1)C(N)=O)C(C)C` (I: Ac-SDD[Nle]EFWCHVMY-NH2 / II: Ac-SDD[Nle]EFWCHVMY-NH2; disulfide I:8-II:8), the Kd was 23 nM.
